Results taken from ChEMBL document CHEMBL1147389, “Two bioactive pterocarpans from Erythrina burana” (J Nat Prod, 1993).

Experiments:
[1] = test system: Saccharomyces cerevisiae; assay: DNA damaging activity against RS322 YK rad52 DNA repair gene deficient Saccharomyces cerevisiae mutant assessed as drug level required to produce 12 mm zone of inhibition after 48 hrs; format: functional
[2] = test system: Saccharomyces cerevisiae; assay: DNA damaging activity against RS167 N rad6 DNA repair gene deficient Saccharomyces cerevisiae mutant assessed as drug level required to produce 12 mm zone of inhibition after 48 hrs; format: functional
[3] = test system: Saccharomyces cerevisiae; assay: DNA damaging activity against RS321 […] DNA repair gene deficient Saccharomyces cerevisiae mutant assessed as drug level required to produce 12 mm zone of inhibition after 48 hrs; format: functional
[4] = test system: Saccharomyces cerevisiae; assay: DNA damaging activity against RS188N rad DNA repair gene expressing Saccharomyces cerevisiae assessed as drug level required to produce 12 mm zone of inhibition after 48 hrs; format: functional
[5] = test system: P388; assay: Cytotoxicity against mouse P388 cells; format: functional, cell-based
[6] = test system: CHO; assay: Cytotoxicity against CHO cells; format: cell-based; details: Cricetulus griseus
[7] = test system: CHO; assay: Cytotoxicity against p-glycoprotein overexpressing CHO cells; format: cell-based; details: Cricetulus griseus

Q: `COc1ccc2c(c1CC=C(C)C)O[C@H]1c3ccc(O)cc3OC[C@@]21O` [ERYTHRABYSSIN I] was tested. Which IC12 [1] did it give?
A: 80 µg/mL

Q: And the IC12 [2]?
A: 540 µg/mL

Q: And the IC12 [3]?
A: 108 µg/mL

Q: What about the IC12 [4] of the same compound?
A: 330 µg/mL

Q: What about the IC50 [5] of the same compound?
A: > 10 µM

Q: And the IC50 [6]?
A: > 20 µM

Q: And the IC50 [7]?
A: 4 µM

Q: Which IC12 [1] does the source give for `CC(C)=CCc1c(O)ccc2c1O[C@H]1c3ccc(O)cc3OC[C@@H]21` [PHASEOLLIDIN] here?
A: 500 µg/mL

Q: What about the IC12 [2] of the same compound?
A: > 1000 µg/mL

Q: And the IC12 [3]?
A: 400 µg/mL

Q: What about the IC12 [4] of the same compound?
A: 5500 µg/mL

Q: And the IC50 [5]?
A: > 10 µM

Q: What about the IC50 [6] of the same compound?
A: 4 µM

Q: And the IC50 [7]?
A: 7.6 µM
